Test results taken from US8557800B2, “Sphingosine kinase inhibitors” (Apogee Biotechnology Corporation, priority 2005, dated 2013).

Columns and labels:
[1] = test system: MCF-7 human breast adenocarcinoma cells; assay: Cytotoxicity, SRB binding assay; assay type: cell-based; details: MCF7, inhibition of cell proliferation, 48 h, read-out: MCF-7 IC50
Procedure: To further assess the biological efficacies of the Compounds in intact cells, each Compound was evaluated for cytotoxicity using human cancer cell lines. These experiments followed methods that have been extensively used. Cell lines tested included MCF-7 human breast adenocarcinoma cells and MCF-10A non-transformed human breast epithelial cells. The indicated cell lines were treated with varying doses of the test Compound for 48 h. Cell survival was then determined using the SRB binding assay (Skehan et al., 1990, J Natl Cancer Inst 82: 1107), and the concentration of compound that inhibited proliferation by 50% (the IC50) was calculated. Values (in μM) represent the mean±sd for replicate trials.

recombinant human SK = assay: Inhibition of recombinant human SK, LC/MS/MS assay; assay type: biochemical; details: 6 μg/ml compound
Procedure: SK activity is measured by incubation of the recombinant SK with [^3H]sphingosine and 1 mM ATP under defined conditions, followed by extraction of the assay mixture with chloroform:methanol under basic conditions. […] Radioactivity in aliquots of the aqueous phase is then quantified as a measure of [^3H]S1P formation.
In an alternate assay procedure, the recombinant human SK was incubated with unlabeled sphingosine and ATP as described above. After 30 minutes, the reactions were terminated by the addition of acetonitrile to directly extract the newly synthesized S1P. The amount of S1P in the samples is then quantified as follows. C17 base D-erythro-sphingosine and C17 SIP are used as internal standards for sphingosine and S1P, respectively. […] The lipids are then fractionation by High-Performance Liquid Chromatography using a C8-reverse phase column eluted with 1 mM methanolic ammonium formate/2 mM aqueous ammonium formate. […] Calibration curves are generated by plotting the peak area ratios of the synthetic standards for each sphingolipid, and used to determine the normalized amounts of sphingosine and S1P in the samples.
Each Compound of this invention was tested for its ability to inhibit recombinant SK using the LC/MS/MS assay described above.

Compound | IC50 [1] [µM] | Recombinant SK (% inhibition) (recombinant human SK) [%]
CC(NCc1ccccc1)C12CC3CC(CC(c4ccccc4)(C3)C1)C2 (stereo not drawn) [Compound 97, Benzyl-[1-(3-phenyl-adamantan-1-yl)-ethyl]-amine] | 0.5 | 
O=C(/C=C/c1cc(-c2ccccc2)cs1)C12CC3CC(C1)CC(c1ccc(Cl)cc1)(C3)C2 [Compound 137, 1-[3-(4-Chloro-phenyl)-adamantan-1-yl]-3-(4-phenyl-thiophen-2-yl)-propenone] | 9 | 
Clc1ccc(C23CC4CC(CC(CNCCc5cccc(Oc6ccccc6)c5)(C4)C2)C3)cc1 [Compound 81, [3-(4-Chloro-phenyl)-adamantan-1-ylmethyl]-[2-(3-phenoxy-phenyl)-ethyl]-amine] |  | 67
CC(NCc1cc(-c2ccccc2)cs1)C12CC3CC(CC(c4ccc(Cl)cc4)(C3)C1)C2 (stereo not drawn) [Compound 120, {1-[3-(4-Chloro-phenyl)-adamantan-1-yl]-ethyl}-(4-phenyl-thiophen-2-ylmethyl)-amine] | 108 | 
CC(NCc1ccc(C(C)(C)C)cc1)C12CC3CC(CC(c4ccc(Cl)cc4)(C3)C1)C2 (stereo not drawn) [Compound 100, (4-tert-Butyl-benzyl)-{1-[3-(4-chloro-phenyl)-adamantan-1-yl]-ethyl}-amine] | 0.3 | 
O=C(NCCN1CCNCC1)C12CC3CC(C1)CC(c1ccc(Cl)cc1)(C3)C2 [Compound 59, 3-(4-Chloro-phenyl)-adamantane-1-carboxylic acid (2-piperazin-1-yl-ethyl)-amide] |  | 0
O=C(Nc1nnn[nH]1)C12CC3CC(C1)CC(c1ccc(Cl)cc1)(C3)C2 [Compound 67, 3-(4-Chloro-phenyl)-adamantane-1-carboxylic acid (1H-tetrazol-5-yl)-amide] |  | 10
CC(NC(=O)Nc1ccc(Cl)c(C(F)(F)F)c1)C12CC3CC(CC(c4ccc(Cl)cc4)(C3)C1)C2 (stereo not drawn) [Compound 118, 1-{1-[3-(4-Chloro-phenyl)-adamantan-1-yl]-ethyl}-3-(4-chloro-3-trifluoromethyl-phenyl)-urea] |  | 77
CC(NCc1ccccc1)C12CC3CC(CC(c4ccc(Cl)cc4)(C3)C1)C2 (stereo not drawn) [Compound 99, Benzyl-{1-[3-(4-chloro-phenyl)-adamantan-1-yl]-ethyl}-amine] | 0.7 | 
CN1CCC(NCC23CC4CC(C2)CC(c2ccc(Cl)cc2)(C4)C3)CC1 [Compound 82, [3-(4-Chloro-phenyl)-adamantan-1-ylmethyl]-(1-methyl-piperidin-4-yl)-amine] |  | 75
CC(C)(C)NCCCNCC12CC3CC(C1)CC(c1ccc(Cl)cc1)(C3)C2 [Compound 84, N-tert-Butyl-N′-[3-(4-chloro-phenyl)-adamantan-1-ylmethyl]-propane-1,3-diamine] |  | 84
CC(NCc1ccncc1)C12CC3CC(CC(c4ccccc4)(C3)C1)C2 (stereo not drawn) [Compound 109, [1-(3-Phenyl-adamantan-1-yl)-ethyl]-pyridin-4-ylmethyl-amine] | 26 | 
O=C(NCc1ccncc1)C12CC3CC(C1)CC(c1ccc(F)cc1)(C3)C2 [Compound 61, 3-(4-Fluoro-phenyl)-adamantane-1-carboxylic acid (pyridin-4-ylmethyl)-amide] |  | 58
Fc1ccc(CNCC23CC4CC(C2)CC(c2ccc(Cl)cc2)(C4)C3)cc1C(F)(F)F [Compound 79, [3-(4-Chloro-phenyl)-adamantan-1-ylmethyl]-(4-fluoro-3-trifluoromethyl-benzyl)-amine] |  | 19
FC(F)(F)Oc1ccc(CNCC23CC4CC(C2)CC(c2ccc(Cl)cc2)(C4)C3)cc1 [Compound 80, [3-(4-Chloro-phenyl)-adamantan-1-ylmethyl]-(4-trifluoromethoxy-benzyl)-amine] |  | 5
CC(NCc1ccc(Cl)nc1)C12CC3CC(CC(c4ccc(Cl)cc4)(C3)C1)C2 (stereo not drawn) [Compound 110, {1-[3-(4-Chloro-phenyl)-adamantan-1-yl]-ethyl}-(6-chloro-pyridin-3-ylmethyl)-amine] | 6 | 
O=C(NCc1ccc(C(F)(F)F)cc1F)C12CC3CC(C1)CC(c1ccc(Cl)cc1)(C3)C2 [Compound 19, 3-(4-Chloro-phenyl)-adamantane-1-carboxylic acid 2-fluoro-4-trifluoromethyl-benzylamide] | > 108 | 
O=C1CCCN1CCCNC(=O)C12CC3CC(C1)CC(c1ccc(Cl)cc1)(C3)C2 [Compound 55, 3-(4-Chloro-phenyl)-adamantane-1-carboxylic acid [3-(2-oxo-pyrrolidin-1-yl)-propyl]-amide] |  | 8

Compound | IC50 [1] [µM] | Recombinant SK (% inhibition) (recombinant human SK) [%]
CCn1c2ccccc2c2cc(CNC(C)C34CC5CC(CC(c6ccc(Cl)cc6)(C5)C3)C4)ccc21 (stereo not drawn) [Compound 115, {1-[3-(4-Chloro-phenyl)-adamantan-1-yl]-ethyl}-(9-ethyl-9H-carbazol-3-ylmethyl)-amine] | 1 | 
CC(NCCc1ccncc1)C12CC3CC(CC(c4ccc(Cl)cc4)(C3)C1)C2 (stereo not drawn) [Compound 111, {1-[3-(4-Chloro-phenyl)-adamantan-1-yl]-ethyl}-(2-pyridin-4-yl-ethyl)-amine] | 13 | 
O=C(NCc1cccc(C(F)(F)F)c1)C12CC3CC(C1)CC(c1ccc(Cl)cc1)(C3)C2 [Compound 15, 3-(4-Chloro-phenyl)-adamantane-1-carboxylic acid 3-trifluoromethyl-benzylamide] | > 112 | 
CCn1c2ccccc2c2cc(C(=O)NC(C)C34CC5CC(CC(c6ccc(Cl)cc6)(C5)C3)C4)ccc21 (stereo not drawn) [Compound 116, 9-Ethyl-9H-carbazole-3-carboxylic acid {1-[3-(4-chloro-phenyl)-adamantan-1-yl]-ethyl}-amide] | 6 | 
Cc1cc2cc(NC(C)C34CC5CC(CC(c6ccc(Cl)cc6)(C5)C3)C4)ccc2[nH]1 (stereo not drawn) [Compound 113, {1-[3-(4-Chloro-phenyl)-adamantan-1-yl]-ethyl}-(2-methyl-1H-indol-5-yl)-amine] | 14 | 
FC(F)(F)c1ccc(CNCC23CC4CC(C2)CC(c2ccc(Cl)cc2)(C4)C3)cc1 [Compound 77, [3-(4-Chloro-phenyl)-adamantan-1-ylmethyl]-(4-trifluoromethyl-benzyl)-amine] |  | 27
Clc1ccc(C23CC4CC(CC(CNCCCN5CCCC5)(C4)C2)C3)cc1 [Compound 85, [3-(4-Chloro-phenyl)-adamantan-1-ylmethyl]-(3-pyrrolidin-1-yl-propyl)-amine] |  | 0
CC(NC(C)C12CC3CC(CC(c4ccc(Cl)cc4)(C3)C1)C2)c1ccc(Br)cc1 (stereo not drawn) [Compound 101, [1-(4-Bromo-phenyl)-ethyl]-{1-[3-(4-chloro-phenyl)-adamantan-1-yl]-ethyl}-amine] | 10 | 
CC(NCc1cc(Br)cs1)C12CC3CC(CC(c4ccc(Cl)cc4)(C3)C1)C2 (stereo not drawn) [Compound 119, (4-Bromo-thiophen-2-ylmethyl)-{1-[3-(4-chloro-phenyl)-adamantan-1-yl]-ethyl}-amine] | 11 | 
O=C(NCCCn1ccnc1)C12CC3CC(C1)CC(c1ccc(Cl)cc1)(C3)C2 [Compound 65, 3-(4-Chloro-phenyl)-adamantane-1-carboxylic acid (3-imidazol-1-yl-propyl)-amide] |  | 3
CC(NCCc1ccc(Br)cc1)C12CC3CC(CC(C3)C1)C2 (stereo not drawn) [Compound 102, (1-Adamantan-1-yl-ethyl)-[2-(4-bromo-phenyl)-ethyl]-amine] | 2 | 
O=C(NCCCc1ccccc1)C12CC3CC(C1)CC(c1ccc(Cl)cc1)(C3)C2 [Compound 48, 3-(4-Chloro-phenyl)-adamantane-1-carboxylic acid (3-phenyl-propyl)-amide] |  | 36
CC(NN1CCN(C)CC1)C12CC3CC(CC(c4ccc(Cl)cc4)(C3)C1)C2 (stereo not drawn) [Compound 108, {1-[3-(4-Chloro-phenyl)-adamantan-1-yl]-ethyl}-(4-methyl-piperazin-1-yl)-amine] | 5 | 
CC(NCc1ccccc1)C12CC3CC(CC(c4ccc(F)cc4)(C3)C1)C2 (stereo not drawn) [Compound 98, Benzyl-{1-[3-(4-fluoro-phenyl)-adamantan-1-yl]-ethyl}-amine] | 3 | 
CC(NC(=O)Nc1ccc(Cl)c(C(F)(F)F)c1)C12CC3CC(CC(c4ccc(Cl)cc4)(C3)C1)C2 (stereo not drawn) [Compound 117, 1-{1-[3-(4-Chloro-phenyl)-adamantan-1-yl]-ethyl}-3-(4-chloro-3-trifluoromethyl-phenyl)-urea] | 3 | 
CC(Nc1ccccc1)C12CC3CC(CC(c4ccc(F)cc4)(C3)C1)C2 (stereo not drawn) [Compound 94, {1-[3-(4-Fluoro-phenyl)-adamantan-1-yl]-ethyl}-phenyl-amine] | 0.6 | 
CC(NCc1cnc[nH]1)C12CC3CC(CC(c4ccc(Cl)cc4)(C3)C1)C2 (stereo not drawn) [Compound 112, {1-[3-(4-Chloro-phenyl)-adamantan-1-yl]-ethyl}-(3H-imidazol-4-ylmethyl)-amine] | 5 | 
CC(C)NCC12CC3CC(C1)CC(c1ccc(Cl)cc1)(C3)C2 [Compound 75, [3-(4-Chloro-phenyl)-adamantan-1-ylmethyl]-isopropyl-amine] | 11 | 
